16 compounds from patent publication US20240207292A1, “BORONIC ACID COMPOUNDS, COMPOSITIONS AND METHODS” (Trustees of Tufts College, priority 2021, published 2024) can be followed below.

What is called IC50 is the concentration needed to halve the response being measured.

Where two headings read alike, the source gives them in different places. Square brackets hold non-standard residues; d marks the D form. Peptide text beside a SMILES is read from it. * marks the point of attachment. DOTA(Ga) = O=C1CN2CCN3CCN(CC(=O)*)CCN(CC2)CC(=O)[O][Ga]([O]1)[O]C(=O)C3; DOTA = O=C(O)CN1CCN(CC(=O)O)CCN(CC(=O)*)CCN(CC(=O)O)CC1; X6 = CN1CC(=O)C2(C1)OC([C@@H]1CCCN1*)OC2=O; boroPro = OB(O)[C@@H]1CCCN1*

This assay has as its target recombinant human fibroblast activation protein (FAP) (Homo sapiens (Human), UniProt Q12884). Description: In vitro assay fibroblast activation protein IC50 (Example 21). It is filed as biochemical. As to the method:
The purpose of this assay is to determine the IC50 of various inhibitors against recombinant human dipeptidyl peptidase IV (DPPIV), fibroblast activation protein (FAP) or prolyl oligopeptidase (PREP).
The assays are conducted in the following steps: • 1 Dissolve the compound in DMSO to a final concentration of 100 mM. From this, prepare a 1 mM stock at pH 7.5 in 50 mM Tris, 140 mM NaCl Buffer (FAP)/pH 7.5 in 25 mM Tris, 250 mM NaCl Buffer/[…]. • 2. Serial dilute (1:10) the 1 mM compound stocks prepared previously into the appropriate assay buffer (FAP: 50 mM Tris, 140 mM NaCl, pH 7.5/PREP: 25 mM Tris, 0.25 M NaCl, pH 7.5/DPPIV: 25 mM Tris, pH 8.0) to one row of a 96-well plate. • 3. […] Dilute the enzymes into their appropriate assay buffers. The final enzyme concentrations should be 0.1, 1.2, and 0.6 nM for DPPIV, FAP and PREP respectively. Add 180 μL to each well needed in columns 2-10. Column 1(A,B,C) should be prepared with 200 μl of appropriate assay buffer as control. Column 1(D,E,F,G,H) should be prepared with 20 μl of appropriate assay buffer and 180 ul enzyme as no inhibitor control. • 5. Add 20 μL of the compound of interest from the dilution plate prepared in step 2 to columns 2-10 of the assay plate where appropriate. Each sample should be tested in triplicate. Allow this to incubate for 10 minutes at room temperature, shaking the plate for the first two minutes. • 6. Add 10 μL of 20× substrate prepared in step 3 to each well and allow this to incubate for 15 minutes at room temperature, shaking the plate for the first two minutes. • 7. Read the fluorescence at λex: 380, λem: 460. (DPcore=[dAla|dSer|Gly]-[boroPro|Pro-nitrile], XXaa=alpha-amino acid)

Chain of recombinant human fibroblast activation protein (FAP) (Q12884 whole entry): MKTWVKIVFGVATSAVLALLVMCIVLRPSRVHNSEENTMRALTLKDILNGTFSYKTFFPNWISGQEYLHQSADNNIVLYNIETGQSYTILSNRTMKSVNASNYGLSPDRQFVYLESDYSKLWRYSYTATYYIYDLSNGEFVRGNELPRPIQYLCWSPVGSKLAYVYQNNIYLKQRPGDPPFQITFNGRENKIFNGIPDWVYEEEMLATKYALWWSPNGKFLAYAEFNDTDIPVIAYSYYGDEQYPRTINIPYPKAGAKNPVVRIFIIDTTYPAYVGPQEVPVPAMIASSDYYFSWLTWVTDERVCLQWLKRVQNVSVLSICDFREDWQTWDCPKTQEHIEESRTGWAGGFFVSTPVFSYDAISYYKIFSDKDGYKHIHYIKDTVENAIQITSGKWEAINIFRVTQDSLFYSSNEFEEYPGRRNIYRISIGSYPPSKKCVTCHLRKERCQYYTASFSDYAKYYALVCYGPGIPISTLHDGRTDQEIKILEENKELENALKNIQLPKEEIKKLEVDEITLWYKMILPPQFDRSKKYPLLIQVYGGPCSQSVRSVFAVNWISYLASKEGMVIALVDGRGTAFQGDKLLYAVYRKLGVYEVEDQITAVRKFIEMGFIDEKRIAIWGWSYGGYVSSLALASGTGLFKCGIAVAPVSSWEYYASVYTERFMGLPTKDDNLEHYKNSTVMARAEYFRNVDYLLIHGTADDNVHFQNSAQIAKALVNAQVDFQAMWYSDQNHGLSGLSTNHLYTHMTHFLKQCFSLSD

Regarding `C[C@@H](NC(=O)c1ccc(NNC(=O)CN2CCN3CCN(CC(=O)O)CCN(CC2)CC(=O)[O][Cu][O]C(=O)C3)cc1)C(=O)N1CCC[C@H]1B(O)O` [5183BU], the IC50 came out at 10.3 nM.
For the compound `C[C@@H](NC(=O)c1ccc(NNC(=O)CN2CCN3CCN4CCN(CC2)CC(=O)[O][Ga]([O]C(=O)C3)[O]C(=O)C4)nc1)C(=O)N1CCC[C@H]1B(O)O` [5183GA], the IC50 is 46.1 nM.
Consider `C[C@@H](NC(=O)c1ccc(NNC(=O)CNC(=O)CN2CCN3CCN(CC(=O)O)CCN(CC2)CC(=O)[O][Cu][O]C(=O)C3)cc1)C(=O)N1CCC[C@H]1B(O)O` [6487CU], for which the concentration for half-maximal inhibition (IC50) was 8.8 nM.
Same read-out and setting: the figure for `C[C@@H](NC(=O)c1ccc(NNC(=O)CCCNC(=O)CN2CCN3CCN4CCN(CC2)CC(=O)[O][Gd]([O]C(=O)C3)[O]C(=O)C4)nc1)C(=O)N1CCC[C@H]1B(O)O` [6489 GD] is 1.1 nM.
For `CC(C)[C@H](NC(=O)CNC(=O)CN1CCN2CCN3CCN(CC1)CC(=O)[O][Ga]([O]C(=O)C2)[O]C(=O)C3)C(=O)N[C@H](C)C(=O)N1CCC[C@H]1B(O)O` [6521GA], the IC50 (Z-Gly-Pro-AMC, 1.2 nM enzyme) is 277 nM.
Still for that read-out and setting: as for `CC(C)[C@H](NC(=O)CNC(=O)CNC(=O)CN1CCN(CC(=O)O)CCN(CC(=O)O)CCN(CC(=O)O)CC1)C(=O)N[C@H](C)C(=O)N1CCC[C@H]1C1OC(=O)C2(CN(C)CC2=O)O1` (stereo partly shown) [6522M] ({DOTA}-GGV[dA]-X6), the figure is 280 nM.
With `C[C@@H](NC(=O)c1ccc(NC(=O)CCCCNC(=O)CN2CCN3CCN4CCN(CC2)CC(=O)[O][Ga]([O]C(=O)C3)[O]C(=O)C4)cc1)C(=O)N1CCC[C@H]1B(O)O` [6590 GA], the IC50 worked out at 15 nM.
Same read-out and setting: the figure for `C[C@@H](NC(=O)c1ccc(NC(=O)CCNC(=O)CN2CCN3CCN4CCN(CC2)CC(=O)[O][Lu]([O]C(=O)C3)[O]C(=O)C4)cc1)C(=O)N1CCC[C@H]1B(O)O` [6590LU] is 0.4 nM.
As for `CC(C)[C@H](NC(=O)CCCNC(=O)CN1CCN2CCN3CCN(CC1)CC(=O)[O][Ga]([O]C(=O)C2)[O]C(=O)C3)C(=O)N[C@H](C)C(=O)N1CCC[C@H]1B(O)O` [6614GA, DOTA(Ga)-GABA-Val-D-ala-boroPro], the half-inhibitory concentration (IC50) (Z-Gly-Pro-AMC, 1.2 nM enzyme) was 218 nM.
Still for that read-out and setting: as for `CC(C)[C@H](NC(=O)CNC(=O)CNC(=O)CNC(=O)CN1CCN2CCN3CCN(CC1)CC(=O)[O][Ga]([O]C(=O)C2)[O]C(=O)C3)C(=O)N[C@H](C)C(=O)N1CCC[C@H]1B(O)O` [6834GA] ({DOTA(Ga)}-GGGV[dA]-boroPro), the figure is 439 nM.
Turning to `CC(C)[C@H](NC(=O)CNC(=O)CNC(=O)CNC(=O)CNC(=O)CN1CCN2CCN3CCN(CC1)CC(=O)[O][Ga]([O]C(=O)C2)[O]C(=O)C3)C(=O)N[C@H](C)C(=O)N1CCC[C@H]1B(O)O` [6839GA] ({DOTA(Ga)}-GGGGV[dA]-boroPro), the 50% inhibitory concentration (IC50) (Z-Gly-Pro-AMC, 1.2 nM enzyme) worked out at 258 nM.
Still for that read-out and setting: as for `CC(C)[C@H](NC(=O)CNC(=O)CNC(=O)CNC(=O)CNC(=O)CNC(=O)CN1CCN2CCN3CCN(CC1)CC(=O)[O][Ga]([O]C(=O)C2)[O]C(=O)C3)C(=O)N[C@H](C)C(=O)N1CCC[C@H]1B(O)O` [6848GA] ({DOTA(Ga)}-GGGGGV[dA]-boroPro), the figure is 180 nM.
On the same count and under the same terms, as for `CC(C)[C@H](NC(=O)CCCCNC(=O)CN1CCN2CCN3CCN(CC1)CC(=O)[O][Ga]([O]C(=O)C2)[O]C(=O)C3)C(=O)N[C@H](C)C(=O)N1CCC[C@H]1B(O)O` [6940GA, DOTA(Ga)-PEN-Val-Dala-boroPro], the figure is 110 nM.
Still for that read-out and setting: the figure for `CC(C)[C@H](NC(=O)CCCCNC(=O)CN1CCN2CCN3CCN(CC1)CC(=O)[O][Lu]([O]C(=O)C2)[O]C(=O)C3)C(=O)N[C@H](C)C(=O)N1CCC[C@H]1B(O)O` [6940LU, DOTA(Lu)-PEN-Val-Dala-boroPro] is 23.6 nM.
In the case of `CC(C)[C@H](NC(=O)CCCCCCCNC(=O)CN1CCN2CCN3CCN(CC1)CC(=O)[O][Ga]([O]C(=O)C2)[O]C(=O)C3)C(=O)N[C@H](C)C(=O)N1CCC[C@H]1B(O)O` [6947GA, DOTA(Ga)-OCT-Val-Dala-boroPro], the IC50 (Z-Gly-Pro-AMC, 1.2 nM enzyme) came to 219 nM.
The same measure, in the same setting: the figure for `CC(C)[C@H](NC(=O)CCCCCNC(=O)CN1CCN2CCN3CCN(CC1)CC(=O)[O][Ga]([O]C(=O)C2)[O]C(=O)C3)C(=O)N[C@H](C)C(=O)N1CCC[C@H]1B(O)O` [6948GA, DOTA(Ga)-HEX-Val-Dala-boroPro] is 144 nM.
